# Patent US20080131432A1, “Method of treating the chemotoxic effects of chemotherapeutic drugs on brain tissue” (University of Kentucky Research Foundation, priority 2005, published 2008)
# “Also recorded” adds a separate entry of the source. Counter-ions that a name gives are not always drawn.
# Assays:
# [1] = system: mitochondrial respiration complex I; test: Brain mitochondrial respiration, complex I (pyruvate + malate), respiration control ratio; conditions: 3 hours after treatment, hydrochloride
# Experimental: Mice were perfused via cardiac puncture with cold mitochondrial isolation buffer, the brain promptly removed, the cerebellum dissected away, and mitochondria immediately isolated from the freshly brain by a modification of the method described by Mattiazzi et al. (2002). Brain mitochondria were isolated in cold mitochondrial isolation buffer, containing 0.07 M sucrose, 0.22 M mannitol, 20 mM HEPES, 1 mM EGTA, and 1% bovine serum albumin, pH 7.2. Tissues were homogenized with a Dounce homogenizer and centrifuged at 1,500×g at 4° C. for 5 minutes before transferring the supernatant. The pellets were resuspended and centrifuged at 1,500×g at 4° C. for 5 minutes. The supernatants were combined and centrifuged at 13,500×g at 4° C. for 10 minutes. Mitochondrial pellets were washed twice and finally resuspended in 50-100 μL cold isolation buffer. Protein concentration of isolated mitochondria was determined by the Bradford assay (Bradford, 1976). The final protein concentration was 20-40 mg/ml.
# Mitochondrial respiration was determined using Clark-type polarographic oxygen sensors (Hansatech Instruments, Kings Lynn, Norfolk, UK) to measure the rate of oxygen consumption. Freshly isolated mitochondria were suspended in respiration buffer at a concentration of 0.5 mg mitochondrial protein per mL of respiration buffer, which consists of 0.25 M sucrose, 50 mM HEPES, 1 mM EGTA, 10 mM KH2PO4, and 2 mM MgCl2, pH 7.4. Oxygen consumption was measured with either pyruvate (10 mM) plus malate (10 mM) or succinate (10 mM) as substrates for respiration from complex I or complex II in the absence of exogenous ADP (state II) and after addition of 300 mM ADP (state III respiration). Rotenone (5 μM) was added to the reaction to inhibit respiration from complex I when succinate was used as the substrate. […] FCCP (1 μM), an uncoupling agent, was added as a control of respiration. Respiration control ratios (RCR) were calculated as the ratios of state III and state II respiration as described previously by Estabrook (1967). The unit for state II rate and state III rate is nmole/min/mg protein.
# Mice were perfused via cardiac puncture with cold mitochondrial isolation buffer, the brain promptly removed, the cerebellum dissected away, and mitochondria immediately isolated from the freshly brain by a modification of the method described by Mattiazzi et al. (2002). Brain mitochondria were isolated in cold mitochondrial isolation buffer, containing 0.07 M sucrose, 0.22 M mannitol, 20 mM HEPES, 1 mM EGTA, and 1% bovine serum albumin, pH 7.2. Tissues were homogenized with a Dounce homogenizer and centrifuged at 1,500×g at 4° C. for 3 minutes before transferring the supernatant fluid. The pellets were resuspended and centrifuged at 1,500×g at 4° C. for 3 minutes. The supernatant fluids were combined and centrifuged at 1,500×g at 4° C. for 3 minutes. These supernatant fluids were then centrifuged at 13,500×g at 4° C. for 10 minutes. Mitochondrial pellets were washed twice and finally resuspended in 50-100 μL cold isolation buffer. Protein concentration of isolated mitochondria was determined by the Bradford assay (Bradford, 1976).
# Mitochondrial respiration was determined using Clark-type polarographic oxygen sensors (Hansatech Instruments, UK) to measure the rate of oxygen consumption. Freshly-isolated mitochondria were suspended in respiration buffer at a concentration of 0.5 mg mitochondrial protein/mL respiration buffer, which consisted of 0.25 M sucrose, 50 mM HEPES, 1 mM EGTA, 10 mM KH2PO4, 2 mM MgCl2 and 0.2% BSA, pH 7.4. Oxygen consumption was measured with either pyruvate (10 mM) or pyruvate plus malate (10 mM) as substrates for respiration from complex I, in the absence of exogenous ADP (state II), and after addition of 300 mM ADP (state III respiration). […] FCCP (1 μM), an uncoupling agent, was added as a control respiration. Respiration control ratios (RCR) were calculated as the ratios of state III and state II respiration.
# [2] = system: TNF α; test: TNF α levels in brain tissue homogenates (Western blot); type: in vivo, mouse; conditions: 3 hours after single dose, vs saline control
# Experimental: Brains perfused with PBS were isolated and dissected from four groups of mice 3 hours post injection of a single dose of ADR, anti-TNF α antibody, anti-TNF α antibody immediately followed by ADR, or saline treated mice. Brain was isolated and placed in 0.1 M PBS, pH 7.4 containing protease inhibitors, 4 μg leupeptin, 4 μg pepstatin, and 5 μg aprotinin, washed and minced in ice-cold PBS containing protease inhibitors. […] Protein concentration of brain homogenate was determined by the Bradford assay (Bradford, 1976).
# Perfused brain homogenates and isolated mitochondrial proteins were size-separated via 12.5% denaturing polyacrylamide gel electrophoresis (SDS-PAGE) and transferred to a nitrocellulose membrane. The membrane was blocked for 1 hour at room temperature in blocking solution consisting of 5% non-fat dried milk, 0.5% Tween-20 and Tris-buffered saline (TBST), pH 7.9. […] Immunoreactivities of the protein bands were detected by enhanced chemiluminescence autoradiography (ECL, Amersham Phamacia Biotech, Arlington Heights, Ill.) as described by the manufacturer.
# [3] = seventy-two hours after a single intraperitoneal injection of ADR; cited from earlier work
# [4] = system: MnSOD, CuZnSOD; test: MnSOD and CuZnSOD protein levels in brain homogenates (western blot); type: in vivo, mouse; conditions: wild-type and iNOSKO mice, 3 hours after ADR 20 mg/kg
# Experimental: Brains were perfused, the cerebellum removed and the brain dissected from mice treated with i.p. ADR 20 mg/kg, or saline as a control, for 3 hours. Brains were placed in ice-cold 50 mM PBS, pH 7.4, containing the protease inhibitors 4 μg leupeptin, 4 μg pepstatin, and 5 μg aprotinin, washed and chopped in ice-cold PBS containing protease inhibitors. Tissues were homogenized with a Potter-Elvehjem glass homogenizer with a loose fitting Teflon® pestle, and protein concentration was determined by the Bradford assay (Bradford, 1976). Brain homogenate proteins were size-separated using denaturing sodium dodecyl sulfate-polyacrylamide gel electrophoresis (SDS-PAGE). Proteins (50 μg) were electrophoresed on 12.5% SDS-PAGE and transferred to a nitrocellulose membrane. The membrane was blocked for 1 hour at room temperature in blocking solution consisting of 5% non-fat dried milk, Tris-buffered saline (TBST; 10 mM Tris-HC, 150 mM NaCl, 0.05% Tween 20), pH 7.9. After blocking, the membrane was incubated overnight at 4° C. with primary antibodies against MnSOD (Upstate, Lake Placid, N.Y., USA), Cu/ZnSOD (Calbiochem, San Diego, Calif., USA) and β-actin (Sigma) in blocking solution. […] Immunoreactivities of the protein bands were detected by enhanced chemiluminescence autoradiography (ECL; Amersham Phamacia Biotech, Arlington Heights, Ill., USA) as described by the manufacturer.
# [5] = system: MnSOD; test: Nitration of MnSOD (immunoprecipitation and western blot); type: in vivo, mouse; conditions: hydrochloride
# Experimental: Solubilized isolated mitochondrial proteins (500 μg) in 500 μL RIPA buffer (9.1 mM Na2HPO4, 1.7 mM NaH2PO4, 150 mM NaCl, 0.5% sodium deoxycholate, 1% v/v Nonidet P40, 0.1% SDS, pH 7.2) were incubated for 16 hours at 4° C. with 10 μg/mL anti-nitrotyrosine antibody (Cayman Chemical, Ann Arbor, Mich., USA) or polyclonal anti-MnSOD antibody (Upstate Biotechnology). Immune complexes were precipitated with 50 μL protein A/G-Agarose. Immunocomplexes were collected by centrifugation at 1500 g for 5 minutes at 4° C., and then washed four times with RIPA buffer. Immunoprecipitated samples were recovered by resuspending in 50 μL 2×sample loading buffer, heated to 95° C. for 5 minutes, and immediately fractionated by reducing SDS-PAGE in 12.5% gels. […] Immunoreactivities of the MnSOD nitrated protein bands were detected by ECL (Amersham Phamacia Biotech) as described by the manufacturer. Nitration of MnSOD was quantified using an akaline phosphatase-linked secondary antibody (Sigma), as described previously (Sultana et al. 2004), and evaluated by densitometric analysis used a Bio-Rad densitometer (Bio-Rad Laboratories, Hercules, Calif., USA).
# [6] = system: p53, Bax, Bcl-xS, Bcl-xL, MnSOD in mitochondria; test: Immunoblots of pro- and anti-apoptotic proteins in brain mitochondria; type: in vivo, mouse
# Experimental: Perfused brain homogenates and isolated mitochondrial proteins were size-separated via 12.5% denaturing polyacrylamide gel electrophoresis (SDS-PAGE) and transferred to a nitrocellulose membrane. The membrane was blocked for 1 hour at room temperature in blocking solution consisting of 5% non-fat dried milk, 0.5% Tween-20 and Tris-buffered saline (TBST), pH 7.9. After blocking, the membrane was incubated overnight at 4° C. with primary antibodies against TNF α (Upstate, Lake Placid, N.Y.) and β-actin (Sigma, St. Louis, […].) in homogenate samples, or isolated mitochondria samples for p53 (Ab-11, Oncogene Research, Cambridge, Mass.), Bcl-xS/L (S-18), Bax (P-19) (Santa Cruz Biotechnology, Santa Cruz, Calif.), MnSOD (Upstate, Lake Placid, N.Y.), and glyceraldehyde-3-phosphate dehydrogenase (G-3-PDH, Trevigen, Gaithersburg, Md.) in blocking solution. The membrane was washed twice in TBST and incubated for 1 hour with horseradish peroxidase-conjugated secondary antibodies in blocking solution. After incubation with secondary antibodies, the membrane was washed twice with TBST and once in TBS (TBS without 0.5% Tween-20). Immunoreactivities of the protein bands were detected by enhanced chemiluminescence autoradiography (ECL, Amersham Phamacia Biotech, Arlington Heights, Ill.) as described by the manufacturer.
# The final protein concentration was 20-40 mg/ml.
# [7] = system: TNF α; test: Immunofluorescence of TNF α localization in neurons of cortex and hippocampus (MAP2 co-staining); type: in vivo, mouse; conditions: 3 hours after 20 mg/kg ADR, vs saline; hydrochloride
# Experimental: Brain tissue slices were fixed in 4% paraformaldehyde for 15 minutes, air dried, and washed with PBS. Non-specific proteins were blocked in blocking serum, consisting of 3% normal donkey's serum, and 0.3% Triton x-100 in PBS, and incubated at room temperature for 30 minutes. After blocking, slices were incubated with primary anti-TNF α (Upstate, Lake Placid, N.Y.), and anti-MAP2 antibody (Chemicon, Temecula, Calif.) was used as a neuronal marker, in order to study the location of TNF α in neurons of cortical and hippocampal regions. The sections were kept in a humidified box at 4° C. overnight. Tissues were washed three times with PBS and then were incubated for 1 hour with donkey antibody-conjugated secondary antibodies coated with fluorescent dyes. Excess secondary antibodies were removed by washing three times in PBS and once with deionized H2O. Tissue slides were mounted with mounting medium (Vectashield, HOURS-100, Vector Laboratories, Burlingame, Calif.). Photomicrographs were obtained using a Leica confocal fluorescence microscope (Leica Microsystems Inc., Bannockburn, Ill., USA).
# [8] = after ADR 20 mg/kg, 3-72 hours, vs saline, hydrochloride
# [9] = after ADR, any time point studied
structure (smiles),measurement,setting,value
"COc1cccc2c1C(=O)c1c(O)c3c(c(O)c1C2=O)C[C@@](O)(C(=O)CO)C[C@@H]3O[C@H]1C[C@H](N)[C@H](O)[C@H](C)O1 [ADR, Doxorubicin hydrochloride]",Brain mitochondrial respiration complex I (RCR),[1]; iNOSKO mice,no effect; also recorded: not in iNOSKO mice
same,"Brain mitochondrial respiration complex I (RCR, state III / state II)","[1]; wild-type mice, vs saline control",significantly decreased; also recorded: decline
same,TNF α levels in brain tissue homogenates,[2],significantly increased
same,Levels of protein oxidation and lipid peroxidation in brain tissues,[3],significant increase
same,CuZnSOD protein level in brain homogenates,[4],no change
same,MnSOD protein level in brain homogenates,[4],no change
same,"Expression of immunoprecipitated MnSOD protein, control vs ADR-treated brain mitochondria",[5]; immunoprecipitation with anti-MnSOD antibody,no difference in expression; also recorded: No significant difference
same,Nitrated MnSOD (nitrotyrosine in MnSOD) in brain mitochondria,"[5]; wild-type mice, 3 hours after ADR 20 mg/kg",an increase of nitrated MnSOD; also recorded: significant increase in nitration of MnSOD; also recorded: significantly increased protein nitration
same,Bax level in brain mitochondria,[6]; [8],increased with a similar kinetics to that of p53; also recorded: increased at 3 and 6 hours; also recorded: increase in protein density
same,p53 level in brain mitochondria,[6]; [8],"increased in mitochondria early times after ADR treatment (3, 6, 24 hours), then declined at 48, and 72 hours; also recorded: significantly increased at 3, 6, and 24 hours; also recorded: increase in protein density"
same,Bcl-xS level in brain mitochondria,[6]; [9],no significant changes
same,MnSOD level in brain mitochondria,[6]; [9],no significant changes
same,TNF α in neurons of cortex,[7],clearly were increased
same,TNF α in neurons of hippocampus,[7],clearly were increased
